Reference: US5591648A, “Antibodies for mevalonic acid and methods for immunological determination of mevalonic acid by using them” (Ono Pharmaceutical Co., Ltd., priority 1993, dated 1997)

Assays:
Format in all cases: binding
[1] = test system: rabbit polyclonal antibody KLH-(12)R for mevalonic acid; assay: Cross-reaction of rabbit polyclonal antibody with analogues of mevalonic acid (radioimmunoassay, competition with R-[2-14C] mevalonic acid); settings: for IC50: competition with 400 Bq R-[2-14C] mevalonic acid, overnight at 4° C., polyethylene glycol precipitation
Procedure: After about 4 weeks, the rabbit was sensitized four times for each 2 weeks, by an emulsion of a PBS solution (500 μl) containing of the antigen for immunization prepared by the same procedure as hereinbefore described, and FICA (500 μl).
Blood was collected from the rabbit and to the serum prepared (50 μl) were added successively water (450 μl), 0.5% γ-globulin (80 μl) and a saturated aqueous solution of ammonium sulfate (580 μl), and then the mixture was centrifuged. The precipitation was dissolved into 50 mM PB (200 μl), and 50 mM PB (100 μl) containing R-[2-^14 C] mevalonic acid (400 Bq) was added thereto and the mixture was reacted overnight at 4° C. To the mixture was added successively 0.1M PB (200 μl) containing 0.5% bovine γ-globulin and 30% polyethylene glycol 6000 (register trademark, Wako Pure Chem Ind. Ltd. 600 μl), and then the mixture was centrifuged. Radioactivity of the precipitation was measured. […] This blood serum was called as polyclonal antibody, KLH-(12)R.
To 50 mM PB containing 400 Bq of R-[2-^14 C] mevalonic acid (100 μl) was added successively a solution of antibody (the mixture of the polyclonal antibody KLH-(12)R of the present invention, water, (0.5% γ-globulin and a saturated aqueous solution of ammonium sulfate in the ratio of 0.5:4.5:0.8:5.8 was centrifugalized, and the obtained precipitation was dissolved into a solution of 50 mM PB of four times as much as amount of the used polyclonal antibody, 100 μl) and a standard solution of mevalonic acid analogous compound as indicated following table (a solution of 50 mM PB, 100 μl) in the polystyrene tube, and then the mixture was allowed to stand overnight at 4° C. To the reaction mixture was added a solution of 0.5% γ-globulin (200 μl), and further added 30% polyethylene glycol 6000 (600 μl), and then the mixture was centrifuged. The precipitation was dissolved into 0.1N aqueous solution of sodium hydroxide, and added the liquid of scintillator (1 ml), and measured radioactivity.

[2] = molecular target: mouse monoclonal antibody MHM-9H (IgG2b, k; hybridoma FERM BP-4524) for mevalonic acid; assay: Cross-reaction of mouse monoclonal antibody with analogues of mevalonic acid (enzyme immunoassay, solid phase first antibody); settings: for IC50: antibody MHM-9H coated 7 μg/ml, peroxidase-labeled antigen (18), overnight at 4° C., absorbance 450 nm; for cross-reactivity: antibody MHM-9H, relative to mevalonic acid = 100
Procedure: A solution of antibody (prepared in example 10 as hereinafter defined) was placed with 100 μl portions in a polystyrene 96 wells micro plate (prepared by NUNC Co.). The micro plate was allowed to stand for 1.5 hours at room temperature to be fixed. After the removal of an aqueous layer, 50 mM PB (400 μl) containing 0.5% BSA was added to block the inside of a wall of wells for 1 hour at room temperature.
After the removal of an aqueous layer, 50 mM PB (100 μl) containing mevalonic acid analogues of various concentrations was added. A solution of labeled antigen (prepared in example 10 as hereinafter defined) was added thereto with 100 μl portions and then the mixture was allowed to stand overnight at 4° C. After the removal of an aqueous layer, the dishes were washed twice with 50 mM PB (300 μl) containing 0.05% Tween 20. The substrate solution (prepared in example 9 as hereinafter, 250 μl) was added thereto and then the mixture was reacted for 15 minutes at room temperature. After the reaction was stopped by the addition of 1N sulfuric acid (50 μl), and the absorbance was measured at 450 nm.
A conjugate (18) of mevalonic acid derivative and a specer (prepared) in example 1(b). 175 nmol) was added to PBS (175 μl) containing a horse-radish peroxidase (prepared by Toyobo, 350 μg) and then the mixture was reacted for 2 hours at room temperature and then overnight at 4° C. The reaction mixture was dialyzed by a mixture of 1,4-dioxane and PBS (1:1) and then by PBS. An obtained enzyme-labeled antigen was diluted with 50 mM PB containing 0.1% BSA to become 1.25 ng/100 μl (as peroxidase protein).
Monoclonal antibody of the present invention, MHM-9H (prepared in example 5), was prepared by 50 mM PB to become 7 μg/ml.

[3] = molecular target: mouse polyclonal antibody KLH-(31)M for mevalonic acid; assay: Enzyme immunoassay of mevalonic acid, solid phase antigen method, mouse polyclonal antibody KLH-(31)M; settings: KLH-(31)M diluted 10^5; coated BSA-(12) 0.01 μg/ml; second antibody and blocking (B)
Procedure: (§1) An emulsion of PBS (100 μl) containing each of various antigens for immunization prepared in Example 2 (120 μg as BSA when a BSA-conjugate is used or 120 μg as KLH when a KLH-conjugate is used), and FCA (100 μl) was intraperitoneally administered to a male BALC/c mouse aged eight weeks. After about 2 weeks, the mouse was immunized five times every 2 weeks, by an emulsion of a PBS solution (100 μl) containing of the antigen for immunization and FICA (100 μl), prepared by the same procedure as hereinbefore described. After the second and fifth immunization with the antigen for immunization and FICA, the titer of antibody in blood was measured by the method shown below.
(§2) Anti-mouse IgG antibody labeled with the horse-radish peroxidase (prepared by Vector Co.), which was diluted with 50 mM PB containing 0.1% BSA 10000 times (a solution of the second antibody (B)), and which was diluted with 50 mM PB containing 0.1% OVA 10000 times (a solution of the second antibody (O)). […]
(§3) After the removal of an aqueous layer, a standard solution (100 μl) was added thereto. […] After a stopping solution (50 μl) added thereto, and the absorbance was measured at 450 nm.
(§4) On all mouse polyclonal antibody, standard calibration curves were made by platting B/B0 calculated from the measured absorbance.

[4] = molecular target: mouse polyclonal antibody KLH-(53)M for mevalonic acid; assay: Enzyme immunoassay of mevalonic acid, solid phase antigen method, mouse polyclonal antibody KLH-(53)M; settings: KLH-(53)M diluted 5 × 10^2; coated BSA-(39) 1 μg/ml; second antibody and blocking (B)
Procedure: as §1, §2, §3, §4

[5] = molecular target: mouse polyclonal antibody KLH-(45)M for mevalonic acid; assay: Enzyme immunoassay of mevalonic acid, solid phase antigen method, mouse polyclonal antibody KLH-(45)M; settings: KLH-(45)M diluted 2 × 10^3; coated BSA-(12) 0.1 μg/ml; second antibody and blocking (B)
Procedure: as §1, §2, §3, §4

[6] = molecular target: mouse polyclonal antibody KLH-(12)M for mevalonic acid; assay: Enzyme immunoassay of mevalonic acid, solid phase antigen method, mouse polyclonal antibody KLH-(12)M; settings: KLH-(12)M diluted 10^4; coated BSA-(31) 0.01 μg/ml; second antibody and blocking (B)
Procedure: as §1, §2, §3, §4

[7] = molecular target: mouse polyclonal antibody KLH-(18)M for mevalonic acid; assay: Enzyme immunoassay of mevalonic acid, solid phase antigen method, mouse polyclonal antibody KLH-(18)M; settings: KLH-(18)M diluted 2 × 10^3; coated BSA-(31) 0.01 μg/ml; second antibody and blocking (B)
Procedure: as §1, §2, §3, §4

[8] = molecular target: mouse polyclonal antibody KLH-(39)M for mevalonic acid; assay: Enzyme immunoassay of mevalonic acid, solid phase antigen method, mouse polyclonal antibody KLH-(39)M; settings: KLH-(39)M diluted 3 × 10^4; coated BSA-(12) 0.01 μg/ml; second antibody and blocking (B)
Procedure: as §1, §2, §3, §4

[9] = molecular target: mouse polyclonal antibody BSA-(19)M for mevalonic acid; assay: Enzyme immunoassay of mevalonic acid, solid phase antigen method, mouse polyclonal antibody BSA-(19)M; settings: BSA-(19)M diluted 2 × 10^3; coated KLH-(31) 0.01 μg/ml; second antibody and blocking (O)
Procedure: as §1, §2, §3, §4

[10] = relative to mevalonic acid = 100

O=C(O)CCCC(=O)O [Glutaric acid]
IC50 [1]: > 6500 μg/test | cross-reactivity [1, 10]: < 0.001% | cross-reactivity ([1]; relative to mevalonic acid = 100, listed as glutaric acid): less than 0.001% | IC50 [2]: > 250 μg/test | cross-reactivity [2]: < 0.001%

CC(CC(=O)O)CC(=O)O [3-Methylglutaric acid]
IC50 [1]: 1000 μg/test | cross-reactivity [1, 10]: 0.0065% | IC50 [2]: > 250 μg/test | cross-reactivity [2]: < 0.001%

CC(O)(CC(=O)O)CC(=O)O [3-Hydroxy-3-methylglutaric acid]
IC50 [1]: 500 μg/test | cross-reactivity [1, 10]: 0.013% | IC50 [2]: > 250 μg/test | cross-reactivity [2]: < 0.001%

C[C@@](O)(CCO)CC(=O)O [Mevalonic acid]
IC50 [3]: 0.7 μg/test | IC50 [4]: 6.0 μg/test | IC50 [5]: 4.0 μg/test | IC50 [6]: 0.5 μg/test | IC50 [7]: 0.3 μg/test | IC50 [1]: 0.065 μg/test | cross-reactivity [1, 10]: 100% | IC50 [8]: 0.1 μg/test | IC50 [9]: 3.6 μg/test | IC50 [2]: 0.0025 μg/test | cross-reactivity [2]: 100%
